# Reference: patent publication US20050176764A1, “Medicine for treating cancer” (KOWA CO., LTD, priority 2002, published 2005)
# Structures can show the parent of a compound that is named as a salt.
# What was measured:
# Format in all cases: cell-based
# [1] = tested on: cultured human cancer cells; experiment: Cancer cell growth inhibition, sulforhodamine B colorimetry, overall statement; settings: result in words
# Method: (§1) Cultured human cancer cells were placed in a 96-well plate. On the following day, a solution of the compound prepared in Example 10 (in five concentrations resulting from 10-fold stepwise dilution: 10^−4, 10^−5, 10^−6, 10^−7, or 10^−8 M) was added, followed by incubation for two days. Cell count after growth was determined in each plate through colorimetry using sulforhodamine B. The concentration at which the cell count after growth was inhibited to 50% of that of the cell count of the control (in the absence of the compound prepared in Example 10) was calculated (GI50). Simultaneously, on the basis of the cell count just before addition of the compound prepared in Example 10 (time zero), the following value (concentration) was calculated. • TGI: a concentration at which cell growth is inhibited to a cell count equal to that at time zero (concentration at which no change in cell count is observed) • LC50: a concentration at which cell count is reduced to 50% of the cell count at time zero (cell-killing effect).
# [2] = tested on: ACHN (renal cancer); experiment: Cancer cell growth inhibition, sulforhodamine B colorimetry; settings: incubation two days
# Method: as §1
# [3] = tested on: MCF-7 (breast cancer); experiment: as above; settings: MCF-7, incubation two days
# Method: as §1
# [4] = tested on: MKN74 (stomach cancer); experiment: as above; settings: MKN74, incubation two days
# Method: as §1
# [5] = tested on: LOX-IMVI (melanoma); experiment: as above; settings: incubation two days
# Method: as §1
# [6] = tested on: HCC2998 (colon cancer); experiment: as above; settings: HCC2998, incubation two days
# Method: as §1
# [7] = tested on: OVCAR-3 (ovarian cancer); experiment: as above
# Method: as §1
# [8] = tested on: DMS114 (lung cancer); experiment: as above; settings: DMS114, incubation two days
# Method: as §1
# [9] = tested on: SF-539 (brain tumor); experiment: as above; settings: SF-539, incubation two days
# Method: as §1
# [10] = tested on: PC-3 (prostatic carcinoma); experiment: as above; settings: PC-3, incubation two days
# Method: as §1
# [11] = tested on: Human umbilical venous endothelial cells (HUVECs); experiment: Gene expression analysis (GeneChip HuGene FL array) in TNFα-stimulated HUVECs; settings: Example 10 at 1 μM, TSA at 10 μM
# Method: Human umbilical venous endothelial cells (HUVECs) were placed in 10 cm dishes (3×10^5 cells/dish). Two days thereafter, Trichostatin A (TSA, produced by Upstate) dissolved in dimethyl sulfoxide (DMSO) and the compound prepared in Example 10 dissolved in DMSO were individually added to a final concentrations of 10 μM and 1 μM, respectively. Each sample was stimulated with TNFα (final concentration: 10 ng/mL, Genzyme-Techne). Four hours later, total RNA was extracted with ISOGEN (Nippon Gene Co., Ltd.). The subsequent procedure was performed in accordance with the manufacturer's protocol (Affymetrix). From the thus obtained total RNA, mRNA was purified by a conventional method. cDNA was synthesized from the purified mRNA, and then biotin-labeled cRNA was synthesized by in vitro transcription. The cRNA was purified and subjected to heat treatment for fragmentation. The fragmented cRNA was used in gene expression analysis.
# Method of gene expression analysis: The thus-prepared fragmented cRNA was injected to a HuGene human FL array (Affymetrix), and allowed to hybridize for 16 hours at 45° C. After washing, streptavidin labeled with phycoerythrin, and biotinylated anti-streptavidin antibody were added to each sample in order to cause reaction. Gene expression information was read by use of a dedicated scanner for GeneChip™ (Hewlett Packard). The thus-obtained information was analyzed with GeneChip Software (Affymetrix) for comparison in terms of level of expression.
# [12] = Homo sapiens, 48 h, read-out: LC50 (the source's name)
# [13] = out of 52 genes increased twice or more by TNFα
structure (smiles),measurement,setting,value
"COc1ccc(N(Cc2ccnc(-c3cc(OC)c(OC)c(OC)c3)c2)C2CCN(Cc3ccnc(-c4cc(OC)c(OC)c(OC)c4)c3)CC2)cc1 [Example 10, 4-[N-(4-methoxyphenyl)-N-[[2-(3,4,5-trimethoxypheny)pyridin-4-yl]methyl]amino]-1-[[2-(3,4,5-trimethoxyphenyl)pyridin-4-yl]methyl]piperidine Trihydrochloride]",growth inhibitory effect on cultured human cancer cells,[1],strong growth inhibitory effect
same,GI50,"[2]; Homo sapiens, 48 h",1.9 µM
same,CC50,[2]; [12],> 100 µM
same,TGI,[2],>100 µM
same,GI50,"[3]; Homo sapiens, MCF7, 48 h",0.16 µM
same,CC50,"[3]; Homo sapiens, MCF7, 48 h, read-out: LC50 (the source's name)",> 100 µM
same,TGI,[3],>100 µM
same,GI50,"[4]; Homo sapiens, MKN-74, 48 h",0.026 µM
same,CC50,"[4]; Homo sapiens, MKN-74, 48 h, read-out: LC50 (the source's name)",> 100 µM
same,TGI,[4],0.56 µM
same,GI50,"[5]; Homo sapiens, 48 h",0.18 µM
same,CC50,[5]; [12],41 µM
same,TGI,[5],1.2 µM
same,TGI,[6],10 µM
same,GI50,"[6]; Homo sapiens, HCC 2998, 48 h",0.33 µM
same,CC50,"[6]; Homo sapiens, HCC 2998, 48 h, read-out: LC50 (the source's name)",40 µM
same,GI50,"[7]; Homo sapiens, 48 h, OVCAR-3, incubation two days",0.35 µM
same,CC50,"[7]; Homo sapiens, OVCAR-3, 48 h, read-out: LC50",> 100 µM
same,TGI,"[7]; OVCAR-3, incubation two days",39 µM
same,TGI,[8],2.6 µM
same,GI50,"[8]; Homo sapiens, DMS-114, 48 h",0.038 µM
same,CC50,"[8]; Homo sapiens, DMS-114, 48 h, read-out: LC50 (the source's name)",> 100 µM
same,GI50,"[9]; Homo sapiens, 48 h",0.83 µM
same,LC50 (concentration reducing cell count to 50% of time-zero count),"[9]; Homo sapiens, 48 h",> 100 µM
same,TGI,[9],>100 µM
same,GI50,"[10]; Homo sapiens, 48 h",26.3 µM
same,CC50,[10]; [12],> 100 µM
same,TGI,[10],>100 µM
same,mRNA expression level of ABC transporter B2,"[11]; TNFα 10 ng/mL, 4 h",69
same,mRNA expression level of B94,"[11]; TNFα 10 ng/mL, 4 h",1010
same,mRNA expression level of BCL3,"[11]; TNFα 10 ng/mL, 4 h",125
same,mRNA expression level of Cox-2,"[11]; TNFα 10 ng/mL, 4 h",0
same,mRNA expression level of EphrinA1,"[11]; TNFα 10 ng/mL, 4 h",148
same,mRNA expression level of Gro1,"[11]; TNFα 10 ng/mL, 4 h",614
same,mRNA expression level of I kappa B alpha,"[11]; TNFα 10 ng/mL, 4 h",1259
same,mRNA expression level of IAP homolog B,"[11]; TNFα 10 ng/mL, 4 h",42
same,mRNA expression level of ICAM-1,"[11]; TNFα 10 ng/mL, 4 h",2174
same,mRNA expression level of IFNGR2,"[11]; TNFα 10 ng/mL, 4 h",186
same,mRNA expression level of IL-7R,"[11]; TNFα 10 ng/mL, 4 h",44
same,mRNA expression level of M-Ras-regulated GEF,"[11]; TNFα 10 ng/mL, 4 h",37
same,mRNA expression level of MCP-1,"[11]; TNFα 10 ng/mL, 4 h",43
same,mRNA expression level of Na/K-ATPase beta-1,"[11]; TNFα 10 ng/mL, 4 h",78
same,mRNA expression level of Nef associated factor 1,"[11]; TNFα 10 ng/mL, 4 h",496
same,mRNA expression level of OB-cadherin-2,"[11]; TNFα 10 ng/mL, 4 h",24
same,mRNA expression level of RDC1,"[11]; TNFα 10 ng/mL, 4 h",27
same,mRNA expression level of Spliceosomal Protein Sap 49,"[11]; TNFα 10 ng/mL, 4 h",40
same,mRNA expression level of TRAF1,"[11]; TNFα 10 ng/mL, 4 h",88
same,mRNA expression level of VCAM-1,"[11]; TNFα 10 ng/mL, 4 h",83
same,mRNA expression level of beta-galactoside alpha-2; 6-sialyltransferase,"[11]; TNFα 10 ng/mL, 4 h",14
same,mRNA expression level of caspase-like apoptosis regulatory protein 2 (clarp),"[11]; TNFα 10 ng/mL, 4 h",76
same,mRNA expression level of cytoplasmic antiproteinase 2 (CAP2),"[11]; TNFα 10 ng/mL, 4 h",78
same,mRNA expression level of ets-2,"[11]; TNFα 10 ng/mL, 4 h",90
same,mRNA expression level of exodus-1,"[11]; TNFα 10 ng/mL, 4 h",310
same,mRNA expression level of fractalkine,"[11]; TNFα 10 ng/mL, 4 h",7
same,mRNA expression level of junB,"[11]; TNFα 10 ng/mL, 4 h",210
same,mRNA expression level of lymphotoxin beta,"[11]; TNFα 10 ng/mL, 4 h",−56
same,mRNA expression level of metalloproteinase stromelysin-2,"[11]; TNFα 10 ng/mL, 4 h",54
same,mRNA expression level of ninjurin1,"[11]; TNFα 10 ng/mL, 4 h",135
same,mRNA expression level of p50-NF-kappa B homolog,"[11]; TNFα 10 ng/mL, 4 h",33
same,number of genes whose expression was enhanced,[11]; [13],6 genes
same,number of genes whose expression was inhibited,[11]; [13],25 genes
